The record followed here is patent US9440964B2, “Pesticidal compositions and processes related thereto” (Dow AgroSciences LLC, priority 2011, dated 2016).

Type in all cases: in vivo
Test [1] deals with CEW (Helicoverpa zea). Description: Bioassay on Corn Earworm (CEW), 128-well diet tray. To be noted: Helicoverpa zea, 168 h, percent mortality, second instar larvae, five to seven days; for pest or weed control at 50 µg/cm2: 50 μg/cm^2 on diet, read-out: Rating CEW; for pest or weed control at 0.5 µg/cm2: 0.5 μg/cm^2 on diet, read-out: Rating CEW (*Tested at 0.5 μg/cm^2). The procedure, abridged: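 Helicoverpa zea (corn earworm) was tested in a 128-well diet tray. Each 3 mL well received one to five second instar larvae on diet treated with the test material in an acetone-water mixture, applied to eight wells and dried. Trays were sealed with clear self-adhesive covers, kept at 25° C., 14:10 light-dark for five to seven days, then percent mortality was averaged across eight wells.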

Test [2] concerns Yellow Fever Mosquito YFM (Aedes aegypti). Description: Bioassay on Yellow Fever Mosquito (YFM) larvae, 96-well plate. As to conditions: mortality of about 1 day-old larvae, scored after 3 days. On the procedure:
Certain molecules disclosed in this document were tested against YFM using procedures described in the following paragraph. In the reporting of the results, the “YFM Rating Table” was used (See Table Section).
Master plates containing 400 μg of a molecule dissolved in 100 μL of dimethyl sulfoxide (DMSO) (equivalent to a 4000 ppm solution) are used. A master plate of assembled molecules contains 15 μL per well. To this plate, 135 μL of a 90:10 water:acetone mixture is added to each well. A robot (Biomek® NXP Laboratory Automation Workstation) is programmed to dispense 15 μL aspirations from the master plate into an empty 96-well shallow plate (“daughter” plate). There are 6 reps (“daughter” plates) created per master. The created daughter plates are then immediately infested with YFM larvae.
The day before plates are to be treated, mosquito eggs are placed in Millipore water containing liver powder to begin hatching (4 g. into 400 ml). After the daughter plates are created using the robot, they are infested with 220 μL of the liver powder/larval mosquito mixture (about 1 day-old larvae). After plates are infested with mosquito larvae, a non-evaporative lid is used to cover the plate to reduce drying. Plates are held at room temperature for 3 days prior to grading. After 3 days, each well is observed and scored based on mortality.
(§1) The results are indicated in the table entitled “Table ABC: Biological Results” (See Table Section).

For test [3], the system named is BAW (Spodoptera exigua). As to the kind of experiment: Bioassay on Beet Armyworm (BAW), 128-well diet tray. To be noted: Spodoptera exigua, 168 h; percent mortality, second instar larvae, 50 μg/cm^2 on diet, five to seven days; read-out: Rating BAW. A digest of the protocol:
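Second-instar Spodoptera exigua larvae (one to five per well) placed on artificial diet surface-treated with 50 μg/cm^2 compound in 90:10 acetone-water, dried, eight wells per compound. Held 5–7 days at 25 °C, 14:10 light-dark; percent mortality averaged across wells.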

For test [4], the system named is Green Peach Aphid (GPA) (Myzus persica). As to the kind of experiment: Bioassay on Green Peach Aphid (GPA), cabbage seedling foliar spray. To be noted: 72 h, corrected % control (Abbott), 200 ppm foliar spray on cabbage, three days, read-out: Rating GPA. Here is the method:
Certain molecules disclosed in this document were tested against GPA using procedures described in the following example. In the reporting of the results, the “GPA Rating Table” was used (See Table Section).
Cabbage seedlings grown in 3-inch pots, with 2-3 small (3-5 cm) true leaves, were used as test substrate. The seedlings were infested with 20-50 GPA (wingless adult and nymph stages) one day prior to chemical application. Four pots with individual seedlings were used for each treatment. Test compounds (2 mg) were dissolved in 2 mL of acetone/MeOH (1:1) solvent, forming stock solutions of 1000 ppm test compound. The stock solutions were diluted 5× with 0.025% Tween 20 in H2O to obtain the solution at 200 ppm test compound. A hand-held aspirator-type sprayer was used for spraying a solution to both sides of […] leaves until runoff. Reference plants (solvent check) were sprayed with the diluent only containing 20% by volume of acetone/MeOH (1:1) solvent. Treated plants were held in a holding room for three days at approximately 25° C. and ambient relative humidity (RH) prior to grading. Evaluation was conducted by counting the number of live aphids per plant under a microscope. Percent Control was measured by using Abbott's correction formula (W. S. Abbott, “A Method of Computing the Effectiveness of an Insecticide” J. Econ. Entomol. 18 (1925), pp. 265-267) as follows. Corrected % Control=100*(X−Y)/X • where • X=No. of live aphids on solvent check plants and • Y=No. of live aphids on treated plants
as §1

On to `Cc1cccc(C)c1N/C(=N/C(=O)Nc1ccc(-c2ncn(-c3ccc(C(F)(F)F)cc3)n2)cc1)SCOC(=O)C(C)C` [Molecule A3, (E)-(N′-(2,6-Dimethylphenyl)-N-(4-(1-(4-(trifluoromethyl)phenyl)-1H-1,2,4-triazol-3-yl)phenylcarbamoyl)carbamimidoylthio) methyl isobutyrate], for which the pest or weed control at 50 µg/cm2 in test [1] and in test [3] was 50 to 100% in each case. Besides, in test [2], the “Rating YFM” value is reported as “A (80-100)”.

Take `COc1cc(C)c(N/C(=N/C(=O)Nc2ccc(-c3ncn(-c4ccc(OC(F)(F)F)cc4)n3)cc2)SCOC(=O)C(C)C)c(C)c1` [Molecule A7, (E)-(N′-(2,6-Dimethyl-4-methoxyphenyl)-N-(4-(1-(4-(trifluoromethyoxy)phenyl)-1H-1,2,4-triazol-3-yl)phenylcarbamoyl)carbamimidoylthio)methyl isobutyrate]: the pest or weed control at 50 µg/cm2 in test [1] and in test [3] was 50 to 100% each time. For the same molecule, in test [4], the pest or weed control at 200 ppm is 0 to 80%.

Regarding `CCC(C)c1ccccc1N1C(=O)CS/C1=N\C(=O)Nc1ccc(-c2ncn(-c3ccc(OC(F)(F)F)cc3)n2)cc1` (centres unmarked) [Molecule A18, (Z)-1-(3-(2-(sec-butyl)phenyl)-4-oxothiazolidin-2-ylidene)-3-(4-(1-(4-(trifluoromethoxy)phenyl)-1H-1,2,4-triazol-3-yl)phenyl)urea], the pest or weed control at 50 µg/cm2 in test [1] and in test [3] was 50 to 100% in each case. For the same molecule, the “Rating YFM” value in test [2] was “A (80-100)”.

Regarding `COc1ccc(N/C(O)=C/C(=O)Nc2ccc(-c3ncn(-c4ccc(OC(F)(F)F)cc4)n3)cc2)c(C(C)C)c1` [Molecule A34, (Z)-3-hydroxy-3-(2-isopropyl-4-methoxyphenylamino)-N-(4-(1-(4-(trifluoromethoxy)phenyl)-1H-1,2,4-triazol-3-yl)phenyl)acrylamide], the pest or weed control at 50 µg/cm2 in test [1] and in test [3] was 50 to 100% in each case. In addition, in test [2], the “Rating YFM” value is “A (80-100)”.

Consider `CCc1ccccc1N1C(=O)CS/C1=N\C(=O)Nc1ccc(-c2ncn(-c3ccc(OC(F)(F)F)cc3)n2)cc1` [Molecule A35], for which the pest or weed control at 50 µg/cm2 in test [1] and in test [3] was 50 to 100% throughout. Also, in test [2], the “Rating YFM” value is listed as “A (80-100)”.

For `COc1ccc(N/C(=N\C(=O)Nc2ccc(-c3ncn(-c4ccc(OC(F)(F)F)cc4)n3)cc2)SCOC(=O)C(C)C)cc1` [Molecule A62], the pest or weed control at 50 µg/cm2 in test [1] and in test [3] was 50 to 100% each time. In addition, the “Rating YFM” value in test [2] was “A (80-100)”.

Regarding `Cc1ccccc1N1C(=O)CS/C1=N\C(=O)Nc1ccc(-c2ncn(-c3ccc(OC(F)(F)F)cc3)n2)cc1` [Molecule A65], the pest or weed control at 0.5 µg/cm2 in test [1] fell in the range of 50 to 100%. In addition, the “Rating YFM” value in test [2] is on record as “A (80-100)”. For the same molecule, the pest or weed control at 50 µg/cm2 in test [3] was in the range of 50 to 100%.

For the molecule `CCCc1ccccc1N1C(=O)CS/C1=N\C(=O)Nc1ccc(-c2ncn(-c3ccc(OC(F)(F)F)cc3)n2)cc1` [Molecule A69], the pest or weed control at 0.5 µg/cm2 in test [1] is 50 to 100%. Also, the “Rating YFM” value in test [2] is “A (80-100)”. Moreover, the pest or weed control at 50 µg/cm2 in test [3] was in the range of 50 to 100%.

For `Cc1ccc(N2C(=O)CS/C2=N\C(=O)Nc2ccc(-c3ncn(-c4ccc(OC(F)(F)F)cc4)n3)cc2)c(Cl)c1` [Molecule A77], in test [1], the pest or weed control at 0.5 µg/cm2 is 50 to 100%. Besides, in test [2], the “Rating YFM” value is reported as “B (More than 0-Less than 80)”. Also, the pest or weed control at 50 µg/cm2 in test [3] was 50 to 100%.

As for `Cc1ccccc1N/C(S)=N/C(=O)Nc1ccc(-c2ncn(-c3ccc(OC(F)(F)F)cc3)n2)cc1` [Molecule A80], the pest or weed control at 50 µg/cm2 in test [1] and in test [3] was 50 to 100% throughout. Also, the “Rating YFM” value in test [2] is given as “B (More than 0-Less than 80)”.

`CC(C)c1cccc(Cl)c1N1C(=O)CS/C1=N\C(=O)Nc1ccc(-c2ncn(-c3ccc(OC(F)(F)F)cc3)n2)cc1` [Molecule A85]: the pest or weed control at 0.5 µg/cm2 in test [1] is 50 to 100%. Besides, the “Rating YFM” value in test [2] is given as “A (80-100)”. In addition, the pest or weed control at 50 µg/cm2 in test [3] was 50 to 100%.

Turning to `COc1ccc(N2C(=O)CS/C2=N\C(=O)Nc2ccc(-c3ncn(-c4ccc(OC(F)(F)F)cc4)n3)cc2)c(C)c1` [Molecule A110], in test [1], the pest or weed control at 0.5 µg/cm2 lay in the range of 50 to 100%. In test [2], the “Rating YFM” value was “A (80-100)”. Also, in test [3], the pest or weed control at 50 µg/cm2 lay in the range of 50 to 100%.

On to `COc1ccc(Cl)cc1N1C(=O)CS/C1=N\C(=O)Nc1ccc(-c2ncn(-c3ccc(OC(F)(F)F)cc3)n2)cc1` [Molecule A111], for which the pest or weed control at 0.5 µg/cm2 in test [1] is 50 to 100%. For the same molecule, the pest or weed control at 50 µg/cm2 in test [3] fell in the range of 50 to 100%.

Turning to `CC(C)c1ccccc1N/C(S)=N/C(=O)Nc1ccc(-c2ccn(-c3ccc(OC(F)(F)F)cc3)n2)cc1` [Molecule A114, N-[[(2-isopropyllphenyl)amino]thioxomethyl]-N′-((4-(1-(4-(trifluoromethoxy)phenyl)-1H-pyrazol-3-yl)phenyl))urea], in test [1], the pest or weed control at 0.5 µg/cm2 was 50 to 100%. The pest or weed control at 50 µg/cm2 in test [3] was 50 to 100%.

As for `CC(C)c1ccccc1N1C(=O)CS/C1=N\C(=O)Nc1ccc(-c2ncn(-c3ccc(OC(F)(F)C(F)(F)F)cc3)n2)cc1` [Molecule A115], the pest or weed control at 0.5 µg/cm2 in test [1] was in the range of 50 to 100%. For the same molecule, the pest or weed control at 50 µg/cm2 in test [3] fell in the range of 50 to 100%.

Regarding `CC(C)c1cc(F)ccc1N/C(S)=N/C(=O)Nc1ccc(-c2ncn(-c3ccc(OC(F)(F)F)cc3)n2)cc1` [Molecule A116], the pest or weed control at 0.5 µg/cm2 in test [1] was 50 to 100%. Also, the pest or weed control at 50 µg/cm2 in test [3] fell in the range of 50 to 100%.

`CC(C)c1cc(F)ccc1N1C(=O)CS/C1=N\C(=O)Nc1ccc(-c2ncn(-c3ccc(OC(F)(F)F)cc3)n2)cc1` [Molecule A117]: the pest or weed control at 0.5 µg/cm2 in test [1] was in the range of 50 to 100%. In addition, the pest or weed control at 50 µg/cm2 in test [3] lay within 50 to 100%.

As for `CC(C)n1nccc1N/C(S)=N/C(=O)Nc1ccc(-c2ncn(-c3ccc(OC(F)(F)F)cc3)n2)cc1` [Molecule A119], in test [1], the pest or weed control at 0.5 µg/cm2 lay within 0 to 50%. In addition, the pest or weed control at 50 µg/cm2 in test [3] was in the range of 50 to 100%.

`CC(C)n1nccc1N1C(=O)CS/C1=N\C(=O)Nc1ccc(-c2ncn(-c3ccc(OC(F)(F)F)cc3)n2)cc1` [Molecule A121]: the pest or weed control at 0.5 µg/cm2 in test [1] fell in the range of 50 to 100%. Further, the pest or weed control at 50 µg/cm2 in test [3] lay within 50 to 100%.

Regarding `Cc1cc(-c2ncn(-c3ccc(OC(F)(F)F)cc3)n2)ccc1NC(=O)/N=C(\S)Nc1ccccc1C(C)C` [Molecule A122, N-[[(2-isopropyllphenyl)amino]thioxomethyl]-N′-(2-methyl(4-(1-(4-(trifluoromethoxy)phenyl)-1H-1,2,4-triazol-3-yl)phenyl))urea], the pest or weed control at 0.5 µg/cm2 in test [1] was in the range of 50 to 100%. Further, in test [2], the “Rating YFM” value is “A (80-100)”. For the same molecule, in test [3], the pest or weed control at 50 µg/cm2 is 50 to 100%.

On to `Cc1cc(-c2ncn(-c3ccc(OC(F)(F)F)cc3)n2)ccc1NC(=O)/N=C1\SCC(=O)N1c1ccccc1C(C)C` [Molecule A123, (Z)-1-(3-(2-isopropylphenyl)-4-oxothiazolidin-2-ylidene)-3-(2-methyl-4-(1-(4-(trifluoromethoxy)phenyl)-1H-1,2,4-triazol-3-yl)phenyl)urea], for which the pest or weed control at 0.5 µg/cm2 in test [1] fell in the range of 50 to 100%. In addition, the “Rating YFM” value in test [2] is recorded as “A (80-100)”. For the same molecule, the pest or weed control at 50 µg/cm2 in test [3] lay in the range of 50 to 100%.
